US8206762B2, “Use of Echinacea or preparations thereof in compositions for the treatment of anxiety” (priority 2006, dated 2012)
Entries after “also recorded” stand apart in the source; their conditions may differ.

Key:
Wistar rats = assay: Elevated plus-maze test of anxiety; type: in vivo, rat; conditions: FIG. 2
Method: For laboratory studies, we used an ethyl alcoholic Echinacea purpurea root tincture prepared by FitoChem Ltd. (H-2200 Monor, 14 Kossuth Str, ww.fitochem.hu), on the 21st of February, 2006 (Lot number FECH-010011205; analytical ID: 052/06). The dry residue was 1.7% w/w, whereas the lead content was less than 10 μg/g. Microbiological analysis provided satisfactory results (e.g. the total plate count was less than 1000 CFU/g). The extract containing 70% ethyl alcohol was stored at room temperature (validity date under these conditions: March, 2007), and used in experiments in April-May, 2006. Before use, ethyl alcohol was evaporated in vacuum at 4° C. by means of a Speed Vac Concentrator (Savant Instruments Inc., Farmingdale, USA). […] The dose was expressed as mg dry residue/kg body weight. […]
This test was described first by Pellow et al. (1984), and later became one of the most popular anxiety tests, frequently used for the identification of putative anxiolytics. […] To avoid confounds with anxiety, the locomotor effects of compounds are evaluated based on closed arm entries (Hogg, 1996).
The elevated plus-maze (arm length 50 cm, arm width 17 cm; wall height 30 cm; platform height 80 cm) was made of dark grey painted wood, and lit by 4 white lamps of 40 W each (approximately 200 lx). […] Behaviors were scored by experimenters blind to treatment conditions by means of a computer based event recorder. […]

mice = conditions: cited from earlier work
humans = conditions: lorazepam 3×1 mg daily; buspirone 3×5 mg daily; cited from earlier work
rats = conditions: cited from earlier work

SMILES | effect on anxiety in mice (mice) | time to significant effects over placebo on State-Trait Anxiety Inventory scores (humans) | treatment time to State-Trait anxiety scores lower than 45 (humans) | further results
CNC1=Nc2ccc(Cl)cc2C(c2ccccc2)=[N+]([O-])C1 [chlordiazepoxide] | – | – | – | locomotor behavior (closed arm entries) / sedation (Wistar rats): highly sedative at higher doses; also recorded: significant locomotor suppression
Cc1c(C(=O)NN2CCCCC2)nn(-c2ccc(Cl)cc2Cl)c1-c1ccc(I)cc1 [AM-251] | anxiogenic | – | – | –
O=C1CC2(CCCC2)CC(=O)N1CCCCN1CCN(c2ncccn2)CC1 [buspirone] | – | 3 weeks | 6 weeks | –
O=C1Nc2ccc(Cl)cc2C(c2ccccc2Cl)=NC1O (centres unmarked) [lorazepam] | – | one week | three weeks | –
Cc1c(C(=O)NN2CCCCC2)nn(-c2ccc(Cl)cc2Cl)c1-c1ccc(Cl)cc1 [SR-141716A] | anxiolytic | – | – | effect on anxiety in rats (rats): anxiogenic
